“And” between values parts separate entries of the source, which are not always exact repeats. Identical values can stand only once.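 Each compound was tested at five concentrations against cells in 96-well plates for 48 hours. GI50 = concentration required for 50% inhibition of growth. TGI is the concentration that stops growth completely.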
Experiments:
Test in all cases: NCI tumour cell line growth inhibition, 48 h
[1] = tested on: NCI-H23 lung
[2] = tested on: NCI-H460 lung
[3] = tested on: NCI/ADR-RES ovarian
[4] = tested on: OVCAR-3 ovarian
[5] = tested on: OVCAR-5 ovarian
[6] = tested on: OVCAR-8 ovarian
[7] = tested on: P388/ADR leukemia
[8] = tested on: PC-3 prostate
[9] = tested on: RPMI-8226 leukemia
[10] = tested on: RXF 393 renal
[11] = tested on: SF-268 CNS
[12] = tested on: SF-539 CNS
[13] = tested on: SK-MEL-2 melanoma
[14] = tested on: SK-MEL-28 melanoma
[15] = tested on: SK-MEL-5 melanoma
[16] = tested on: SK-OV-3 ovarian
[17] = tested on: SN12C renal
[18] = tested on: SNB-19 CNS
[19] = tested on: SNB-75 CNS
[20] = tested on: SNB-78 CNS
[21] = tested on: SW-620 colon
[22] = tested on: T-47D breast
[23] = tested on: TK-10 renal
[24] = tested on: U251 CNS
[25] = tested on: UACC-257 melanoma

## CCN(CC)CCOc1cccc2nc3c(cc12)Cn1c-3cc2c(c1=O)COC(=O)C2(O)CC (stereo not given)
[1]
  GI50: 0.506 µM and 0.87 µM
  TGI: 4.19 µM and 4.86 µM
[2]
  GI50: 0.0754 µM and 0.282 µM
  TGI: 1.88 µM and 11.8 µM
[3]
  GI50: 0.886 µM and 3.07 µM
  TGI: 18 µM and 19.1 µM
[4]
  GI50: 5.64 µM and 9.73 µM
  TGI: 20.3 µM and 25.9 µM
[5]
  GI50: 0.45 µM and 3.46 µM
  TGI: 3.81 µM and 32.7 µM
[6]
  GI50: 1.24 µM and 1.47 µM
  TGI: 30.8 µM and 15.4 µM
[7]
  GI50: 2.56 µM
  TGI: 8.27 µM
[8]
  GI50: 4.62 µM
  TGI: > 100 µM
[9]
  GI50: 1.47 µM
  TGI: 22.5 µM
[10]
  GI50: 1.4 µM and 10.6 µM
  TGI: 6.08 µM and 28.7 µM
[11]
  GI50: 0.212 µM and 0.188 µM
  TGI: 11.7 µM
[12]
  GI50: 0.267 µM and 0.774 µM
  TGI: 1.47 µM and 3.93 µM
[13]
  GI50: 12.3 µM and 17.9 µM
  TGI: 25.3 µM and 39.6 µM
[14]
  GI50: 7.51 µM and 12.3 µM
  TGI: 20.7 µM and 30 µM
[15]
  GI50: 1.08 µM
  TGI: 6.31 µM
[16]
  GI50: 4.39 µM
  TGI: > 43.4 µM
[17]
  GI50: 0.266 µM and 0.747 µM
  TGI: 9.16 µM and > 41.5 µM
[18]
  GI50: 0.329 µM and 0.87 µM
  TGI: 30.6 µM and > 58.1 µM
[19]
  GI50: 1.34 µM and 0.545 µM
  TGI: 19.5 µM and 5.09 µM
[20]
  GI50: 14.1 µM
  TGI: 80.2 µM
[21]
  GI50: 2.17 µM and 4.33 µM
  TGI: 29.7 µM and 36.6 µM
[22]
  GI50: 0.739 µM
  TGI: 7.25 µM
[23]
  GI50: 26.7 µM
  TGI: > 100 µM
[24]
  GI50: 0.0867 µM and 0.358 µM
  TGI: 1.43 µM and 11.1 µM
[25]
  GI50: 11 µM and 7.08 µM
  TGI: 23.1 µM and 21 µM
